{
  "source": "BindingDB's records for doi:10.1074/jbc.M809633200",
  "about": "(United States Army Medical Research Institute of Infectious …, 2009)",
  "data": [
    {"biological_target": "T1, Receptor-type tyrosine-protein phosphatase C (Homo sapiens, UniProt P08575)", "T1 sequence (P08575 whole entry)": "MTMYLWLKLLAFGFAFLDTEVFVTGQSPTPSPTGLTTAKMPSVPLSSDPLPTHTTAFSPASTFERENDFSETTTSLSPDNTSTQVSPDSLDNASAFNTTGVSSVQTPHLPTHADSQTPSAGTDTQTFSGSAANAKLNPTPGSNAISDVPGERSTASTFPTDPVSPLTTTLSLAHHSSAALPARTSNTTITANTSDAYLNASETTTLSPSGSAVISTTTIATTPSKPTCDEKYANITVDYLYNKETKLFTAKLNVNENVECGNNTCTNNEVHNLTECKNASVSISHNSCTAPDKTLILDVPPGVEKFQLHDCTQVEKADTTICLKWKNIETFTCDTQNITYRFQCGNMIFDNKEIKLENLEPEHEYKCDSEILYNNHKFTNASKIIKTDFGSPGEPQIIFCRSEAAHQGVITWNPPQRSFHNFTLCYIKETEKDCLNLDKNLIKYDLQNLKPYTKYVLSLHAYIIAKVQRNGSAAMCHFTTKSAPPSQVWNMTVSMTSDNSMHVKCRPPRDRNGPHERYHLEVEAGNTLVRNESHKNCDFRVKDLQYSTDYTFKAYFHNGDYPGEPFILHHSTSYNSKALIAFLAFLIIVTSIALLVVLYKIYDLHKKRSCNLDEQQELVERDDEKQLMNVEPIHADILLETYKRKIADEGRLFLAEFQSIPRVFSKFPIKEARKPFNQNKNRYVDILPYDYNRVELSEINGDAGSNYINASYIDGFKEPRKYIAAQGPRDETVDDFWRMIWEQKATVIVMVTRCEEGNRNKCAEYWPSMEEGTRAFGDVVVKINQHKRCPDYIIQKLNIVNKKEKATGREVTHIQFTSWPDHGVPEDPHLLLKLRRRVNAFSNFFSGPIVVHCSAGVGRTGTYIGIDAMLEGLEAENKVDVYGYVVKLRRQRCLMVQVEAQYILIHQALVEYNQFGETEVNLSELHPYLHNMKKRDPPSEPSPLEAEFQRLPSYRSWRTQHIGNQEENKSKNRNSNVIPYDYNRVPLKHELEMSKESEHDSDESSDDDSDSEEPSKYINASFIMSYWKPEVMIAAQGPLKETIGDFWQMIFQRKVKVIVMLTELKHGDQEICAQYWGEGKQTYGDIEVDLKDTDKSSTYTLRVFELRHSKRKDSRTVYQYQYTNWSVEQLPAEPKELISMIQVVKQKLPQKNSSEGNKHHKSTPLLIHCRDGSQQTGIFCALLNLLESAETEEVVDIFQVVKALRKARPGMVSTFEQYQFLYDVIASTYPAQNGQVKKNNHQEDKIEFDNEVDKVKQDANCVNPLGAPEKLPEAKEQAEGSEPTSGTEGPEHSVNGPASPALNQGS", "assay": "Phosphatase Activity Assay", "source_text": "Protein phosphatases were purchased from Upstate Biotechnology (Lake Placid, NY).", "units": {"IC50": "nM"}, "values": [
      {"molecule": "O=C1C(=O)c2cccc([N+](=O)[O-])c2-c2ccccc21", "note": "[4-Nitro-phenanthrene-9,10 dione]", "IC50": 6000},
      {"molecule": "CC(C)(C)C(=O)Nc1ccc2c(c1)C(=O)C(=O)c1ccccc1-2", "note": "[N-(9,10-Dioxo-9,10-dihydro-phenanthrene-2-yl)-2,2-dimethyl-propionamide]", "IC50": 400},
      {"molecule": "O=C1C(=O)c2ccccc2-c2ccccc21", "IC50": 300}
    ]}
  ]
}
